One data set has as its target T1, OCT1 (SLC22A1) (Homo sapiens, UniProt O15245).
T1 sequence (O15245 whole entry): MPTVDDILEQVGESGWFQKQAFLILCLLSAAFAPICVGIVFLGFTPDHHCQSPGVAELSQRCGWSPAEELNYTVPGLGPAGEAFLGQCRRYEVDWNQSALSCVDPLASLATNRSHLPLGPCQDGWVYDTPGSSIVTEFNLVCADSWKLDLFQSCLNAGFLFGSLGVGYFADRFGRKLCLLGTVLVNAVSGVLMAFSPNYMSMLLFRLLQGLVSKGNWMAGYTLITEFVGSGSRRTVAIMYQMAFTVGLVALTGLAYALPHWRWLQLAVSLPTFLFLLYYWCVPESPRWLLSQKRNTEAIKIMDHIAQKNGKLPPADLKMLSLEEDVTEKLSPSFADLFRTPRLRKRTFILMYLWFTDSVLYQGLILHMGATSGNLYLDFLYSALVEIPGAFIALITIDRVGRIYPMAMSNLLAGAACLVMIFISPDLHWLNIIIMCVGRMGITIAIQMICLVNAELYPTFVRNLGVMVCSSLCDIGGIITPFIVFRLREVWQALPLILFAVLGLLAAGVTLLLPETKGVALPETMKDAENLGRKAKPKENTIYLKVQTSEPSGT
The data set can be described thus: Inhibition of OCT1(unknown origin)-mediated ASP+ uptake in HEK293 cells expressing OCT1 using ASP+ as substrate at 50 uM incubated for 5 mins by fluorescence based microplate reader analysis relative to control. As to conditions: HEK293 cells expressing OCT1, probe ASP+. It counts as cell-based.

The subject of data set [1] is HEK293. The data set is described as follows: Cytotoxicity against HEK293 cells harboring empty vector assessed as reduction in cell viability at 250 uM incubated for 12 hrs by resazurin dye based assay. It counts as toxicity. Conditions: human, hek293, 12 h. A general note: The colour change of resazurin is a common sign of viable cells or microbes.
Data set [2] deals with HEK293. The data set can be described thus: Cytotoxicity against HEK293 cells expressing OCT1 assessed as reduction in cell viability at 250 uM incubated for 12 hrs by resazurin dye based assay. It counts as toxicity. Conditions: human, hek293, 12 h.
Data set [3] deals with HEK293. The data set can be described thus: Cytotoxicity against HEK293 cells expressing OCT2 assessed as reduction in cell viability at 250 uM incubated for 12 hrs by resazurin dye based assay. It is filed as toxicity. As to conditions: human, hek293, 12 h.
The target in data set [4] is T2, Solute carrier family 22 member 1 (Homo sapiens, UniProt O15245).
T2 sequence (O15245 whole entry): T1 sequence (O15245 whole entry)
The data set is described as follows: Inhibition of OCT1(unknown origin)-mediated ASP+ uptake in HEK293 cells expressing OCT1 using ASP+ as substrate incubated for 5 mins. It counts as cell-based.

Data set [5] deals with T3, Solute carrier family 22 member 2 (Homo sapiens, UniProt O15244).
T3 sequence (O15244 whole entry): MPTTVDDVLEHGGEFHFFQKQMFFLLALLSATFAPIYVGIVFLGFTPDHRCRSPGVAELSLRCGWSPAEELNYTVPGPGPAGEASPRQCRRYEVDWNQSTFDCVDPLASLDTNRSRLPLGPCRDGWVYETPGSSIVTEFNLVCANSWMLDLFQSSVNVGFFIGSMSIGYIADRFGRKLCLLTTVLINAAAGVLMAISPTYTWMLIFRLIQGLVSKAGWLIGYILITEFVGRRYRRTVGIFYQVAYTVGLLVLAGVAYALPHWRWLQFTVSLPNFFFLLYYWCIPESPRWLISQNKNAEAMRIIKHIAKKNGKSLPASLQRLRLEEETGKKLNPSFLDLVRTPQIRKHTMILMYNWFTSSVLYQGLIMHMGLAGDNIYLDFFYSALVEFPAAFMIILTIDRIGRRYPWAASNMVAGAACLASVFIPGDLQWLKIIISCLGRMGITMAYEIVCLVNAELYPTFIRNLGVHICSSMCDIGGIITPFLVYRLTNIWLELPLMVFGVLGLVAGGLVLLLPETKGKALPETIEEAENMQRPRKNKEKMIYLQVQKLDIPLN
The data set can be described thus: Inhibition of OCT2(unknown origin)-mediated ASP+ uptake in HEK293 cells expressing OCT2 using ASP+ as substrate incubated for 5 mins. It is filed as cell-based.

The test system of data set [6] is HEK293. The data set is described as follows: Selectivity index, ratio of IC50 for inhibition of OCT2(unknown origin)-mediated ASP+ uptake in HEK293 cells expressing OCT2 to IC50 for inhibition of OCT1(unknown origin)-mediated ASP+ uptake in HEK293 cells expressing OCT1. It is filed as cell-based. As to conditions: Homo sapiens.
The nature of data set [7]: Activation of AMPK signalling pathway in human L02 cells expressing OCT1 assessed as increase in AMPK phosphorylation at 2.5 to 10 uM incubated for 1 to 24 hrs by Western blot analysis. It counts as cell-based. Conditions: filed as activator, dose 2.5-10 µM, time 1-24 hrs. (In western blotting, separated proteins are transferred to a membrane and probed.)
A short description of data set [8]: Activation of AMPK signalling pathway in human HepG2 cells expressing OCT1 assessed as increase in AMPK phosphorylation at 2.5 to 10 uM incubated for 1 to 24 hrs by Western blot analysis. It is filed as cell-based. Conditions: filed as activator, dose 2.5-10 µM, time 1-24 hrs.
Data set [9] in a line: Activation of AMPK signalling pathway in human L02 cells expressing OCT1 assessed as decrease in FASN mRNA expression at 2.5 to 10 uM incubated for 1 to 24 hrs by qRT-PCR analysis. It counts as cell-based. Conditions: filed as activator, dose 2.5-10 µM, time 1-24 hrs. On the technique in general: Quantitative PCR measures a nucleic acid by following its amplification.
Data set [10] is described as follows: Activation of AMPK signalling pathway in human L02 cells expressing OCT1 assessed as decrease in ACC mRNA expression at 2.5 to 10 uM incubated for 1 to 24 hrs by qRT-PCR analysis. It counts as cell-based. As to conditions: filed as activator, dose 2.5-10 µM, time 1-24 hrs.
Data set [11] is described as follows: Activation of AMPK signalling pathway in human HepG2 cells expressing OCT1 assessed as decrease in FASN mRNA expression at 2.5 to 10 uM incubated for 1 to 24 hrs by qRT-PCR analysis. It counts as cell-based. As to conditions: filed as activator, dose 2.5-10 µM, time 1-24 hrs.
Data set [12] in a line: Activation of AMPK signalling pathway in human HepG2 cells expressing OCT1 assessed as decrease in ACC mRNA expression at 2.5 to 10 uM incubated for 1 to 24 hrs by qRT-PCR analysis. It counts as cell-based. Conditions: filed as activator, dose 2.5-10 µM, time 1-24 hrs.
Data set [13] relates to L02. The data set is described as follows: Inhibition of FFA-induced lipid accumulation in human L02 cells expressing OCT1 at 10 uM incubated for 24 hrs by Oil Red O staining based microscopic analysis. It counts as functional, cell-based.
Data set [14] relates to HepG2. The data set can be described thus: Inhibition of FFA-induced lipid accumulation in human HepG2 cells expressing OCT1 at 10 uM incubated for 24 hrs by Oil Red O staining based microscopic analysis. It counts as functional, cell-based.
The subject of data set [15] is L02. The data set can be described thus: Inhibition of FFA-induced lipid accumulation in human L02 cells expressing OCT1 assessed as decrease in triglyceride level at 10 uM incubated for 24 hrs. It is filed as functional, cell-based.
In data set [16] the test system is HepG2. The data set can be described thus: Inhibition of FFA-induced lipid accumulation in human HepG2 cells expressing OCT1 assessed as decrease in triglyceride level at 10 uM incubated for 24 hrs. It counts as functional, cell-based.

Calls of active or inactive are those of the source. The rule behind the calls is not given here.

By inhibition is commonly meant the percentage by which the read-out fell short of the control. In general, IC50 refers to the midpoint of a concentration-inhibition curve. Low values mean inhibition by little substance, high ones a need for much substance.

`C[C@@H]1CC[C@@]2(OC1)O[C@H]1C[C@H]3[C@@H]4CC=C5C[C@@H](O)C[C@@H](O[C@@H]6O[C@H](C)[C@H](O)[C@H](O[C@@H]7OC[C@@H](O)[C@H](O)[C@H]7O)[C@H]6O[C@@H]6O[C@@H](C)[C@H](O)[C@@H](O)[C@H]6O)[C@]5(C)[C@H]4CC[C@]3(C)[C@H]1[C@@H]2C` came in with an inhibition at 5 min, 50 µM against OCT1 (SLC22A1) of more than 50%. The Activity entry in the data set on HEK293 [1], in the data set with HEK293 [2] and with HEK293 [3] was “Non-Toxic” each time. Also, the IC50 worked out at 41.3 µM in [4] and 19.1 µM in data set [5].
As for `NC12CC3CC(CC(C3)C1)C2` [AMANTADINE], the IC50 in data set [4] worked out at 39.6 µM; in [5] it was 45.9 µM. Besides, in the data set with HEK293 [6], the Ratio IC50 was found to be 1.16.
For `C/C=C1\C2CC(=O)OC[C@@H](c3ccc(O)c(O)c3)OC[C@H]3O[C@@H](O[C@@H]1OC=C2C(=O)OC)[C@H](O)[C@@H](O)[C@@H]3O`, at OCT1 (SLC22A1), the inhibition at 5 min, 50 µM was more than 50%. The Activity entry with HEK293 [1], with HEK293 [2] and in the data set on HEK293 [3] was “Non-Toxic” throughout. In addition, the half-inhibitory concentration (IC50) was found to be 47.3 µM in [4] and 1270 µM in data set [5].
`COc1ccc(-c2oc3cc(OC)cc(OC)c3c(=O)c2OC)cc1` [TETRAMETHYLKAEMPFEROL] yielded an inhibition at 5 min, 50 µM at OCT1 (SLC22A1) of more than 50%. Also, the Activity entry with HEK293 [1], in the data set on HEK293 [2] and with HEK293 [3] was “Non-Toxic” each time. Moreover, the IC50 in data set [4] is 47 µM; in [5], 39.5 µM.
Take `O=c1cc(-c2ccc(O)cc2)oc2cc(O)cc(O)c12` [APIGENIN]: at OCT1 (SLC22A1), the inhibition at 5 min, 50 µM is more than 50%. Moreover, the Activity entry with HEK293 [1], in the data set with HEK293 [2] and in the data set with HEK293 [3] was “Non-Toxic” each time. Moreover, the results for the IC50 in data set [4] and in [5] were 38.9 µM and 30.9 µM, respectively.
`CC(C)=CCc1c(O)cc(O)c2c(=O)c(O[C@@H]3O[C@@H](C)[C@H](O)[C@@H](O)[C@H]3O[C@@H]3O[C@H](CO)[C@@H](O)[C@H](O)[C@H]3O)c(-c3ccc(O)cc3)oc12` yielded an inhibition at 5 min, 50 µM against OCT1 (SLC22A1) of more than 50%. For the same compound, the Activity entry with HEK293 [1], with HEK293 [2] and in the data set on HEK293 [3] was “Non-Toxic” throughout. The IC50 turned out to be 11.2 µM in [4] and 56.5 µM in data set [5].
Regarding `CNC(=C[N+](=O)[O-])NCCSCc1ccc(CN(C)C)o1` [RANITIDINE], the IC50 was determined as 28 µM in data set [4] and 1620 µM in [5]. For the same compound, the Ratio IC50 in the data set with HEK293 [6] worked out at 39.6.
For `CC(C)=CCc1cc(-c2cc(=O)c3c(O)cc(O)c(CC=C(C)C)c3o2)cc(O)c1O`, the inhibition at 5 min, 50 µM at OCT1 (SLC22A1) is more than 50%. For the same compound, the Activity entry in the data set with HEK293 [1], in the data set on HEK293 [2] and in the data set with HEK293 [3] was “Non-Toxic” each time. Besides, the half-maximal inhibitory concentration (IC50) was determined as 40.2 µM in [4] and 33.1 µM in data set [5].
For the compound `C[C@@]12C[C@@]3(O)O[C@@H](O1)[C@]1(COC(=O)c4ccccc4)[C@H]3C[C@@]12O[C@@H]1O[C@H](COC(=O)c2ccccc2)[C@@H](O)[C@H](O)[C@H]1O`, the inhibition at 5 min, 50 µM against OCT1 (SLC22A1) is more than 50%. Moreover, the Activity entry with HEK293 [1], with HEK293 [2] and in the data set with HEK293 [3] was “Non-Toxic” throughout. The IC50 in data set [4] came to 3.46 µM; in data set [5] it was 4120 µM. Also, in the data set on HEK293 [6], the Ratio IC50 was more than 1000. Also, the outcome in data set [7], in [8], in data set [9], in data set [10], in [11] and in [12] was Active. In addition, the inhibition entry with L02 [13], in the data set with HepG2 [14], in the data set with L02 [15] and in the data set with HepG2 [16] was “Active” in each case.
Turning to `C[C@H]1O[C@@H](O[C@H]2CC[C@@]3(C)[C@@H](CC[C@]4(C)[C@@H]3C=CC3=C5CC(C)(C)CC[C@]5(CO)[C@@H](O)C[C@]34C)[C@]2(C)CO)[C@H](O)[C@@H](O[C@@H]2O[C@H](CO)[C@@H](O)[C@H](O)[C@H]2O)[C@H]1O`, at OCT1 (SLC22A1), the inhibition at 5 min, 50 µM is more than 50%. The Activity result in the data set on HEK293 [1], in the data set on HEK293 [2] and with HEK293 [3] was “Non-Toxic” throughout. Besides, the IC50 in data set [4] came to 35.2 µM; in [5], 69.5 µM.
The compound `COc1cc(O)c2c(c1)oc(=O)c1c3cc(O)c(O)cc3oc21` [WEDELOLACTONE] had an inhibition at 5 min, 50 µM against OCT1 (SLC22A1) of more than 50%. For the same compound, the Activity entry in the data set on HEK293 [1], with HEK293 [2] and in the data set with HEK293 [3] was “Non-Toxic” throughout. The IC50 in data set [4] was determined as 38.4 µM; in data set [5], 17.3 µM.
For the compound `O=c1cc(-c2ccc(O)c(O)c2)oc2cc(O)cc(O)c12` [LUTEOLIN], at OCT1 (SLC22A1), the inhibition at 5 min, 50 µM is more than 50%. In addition, the Activity entry in the data set with HEK293 [1], with HEK293 [2] and in the data set on HEK293 [3] was “Non-Toxic” in each case. Also, the IC50 in [4] came out at 46.1 µM; in data set [5] it was 41 µM.

These data come from ChEMBL document CHEMBL5226370, “Selective Inhibition of Organic Cation Transporter 1 by Benzoylpaeoniflorin Attenuates Hepatic Lipid Accumulation through AMPK Activation” (J Nat Prod, 2023).
